Legend:
[1] = molecular target: kinase IRAK4 (Homo sapiens (Human), UniProt Q9NWZ3); assay: Inhibitory effects of compounds on kinase activity (fluorescence microfluidic mobility detection, competitive with ATP); type: biochemical; details: Table 2; IRAK4 6 nM, ATP 10 μM, substrate FAM-P8 3 μM
Experimental: Based on an experimental method of fluorescence microfluidic mobility detection, an IC50 value of competitive binding of kinase IRAK4 to ATP by the compounds was determined. The initial detection concentration of the compounds was 10 μM, diluted 4-fold gradient down to […], and tested in duplicate. Among them, commercial staurosporine was the standard control substance in this experiment.
1) IRAK4 kinase was dissolved in kinase buffer (50 mM HEPES pH 7.5, 10 mM MgCl2, 2 mM DTT and 0.01% Brij-35) to a final concentration of 6 nM.
2) The substrate peptide FAM-P8 and ATP were dissolved in the above kinase buffer. The final concentrations of the IRAK4 substrate peptide FAM-P8 and ATP were 3 μM and 10 μM respectively.
3) Dilution of the compounds: the compound was first diluted to 50 μM, and then diluted down with a 4-fold gradient of DMSO. The solution without the compound and kinase is used as a blank control, corresponding to the “minimum value” shown below; and the solution without the compound but with kinase, adenosine 5′-triphosphate disodium salt hydrate, DMSO and buffer is used as a positive control, corresponding to the “maximum value” shown below. 4) Kinase reaction and termination: 10 μL of kinase buffer was added to a 384-well plate containing 5 μL of the compound to be tested, and incubated at room temperature for 10 minutes. Another 10 μL of buffer containing the substrate peptide and adenosine 5′-triphosphate disodium salt hydrate was added to the 384-well plate. After incubation at 28° C. for one hour, 25 μL stop solution (100 mM HEPES pH 7.5, 50 mM EDTA, 0.2% Coating Reagent #3 and 0.015% Brij-35) was added to each well to terminate the reaction.
5) Data reading: the CaliperEZ Reader II instrument was used to read the conversion rate data. Conditions: downstream voltage −500V, upstream voltage −2250V, base pressure −0.5 PSI, and screening pressure −1.2 PSI.
6) Data calculation: the conversion rate data was copied from CaliperEZ Reader II and converted into inhibition rate data. The calculation formula is as follows:
[formula] • IC50 values were fitted using XLFit excel add-in version 5.4.0.8,
Y=Bottom+(Top−Bottom)/(1+(IC50/X)^HillSlope) Fitting formula: […]

[2] = molecular target: IRAK4 protein in THP-1 cells (Homo sapiens (Human), UniProt Q9NWZ3); assay: PROTAC-induced IRAK4 protein degradation in THP-1 cells (Western Blot); type: cell-based; details: concentration that degraded 50% of IRAK4, Western blotting, 24 hours after administration
Chain of IRAK4 protein in THP-1 cells (Q9NWZ3 whole entry): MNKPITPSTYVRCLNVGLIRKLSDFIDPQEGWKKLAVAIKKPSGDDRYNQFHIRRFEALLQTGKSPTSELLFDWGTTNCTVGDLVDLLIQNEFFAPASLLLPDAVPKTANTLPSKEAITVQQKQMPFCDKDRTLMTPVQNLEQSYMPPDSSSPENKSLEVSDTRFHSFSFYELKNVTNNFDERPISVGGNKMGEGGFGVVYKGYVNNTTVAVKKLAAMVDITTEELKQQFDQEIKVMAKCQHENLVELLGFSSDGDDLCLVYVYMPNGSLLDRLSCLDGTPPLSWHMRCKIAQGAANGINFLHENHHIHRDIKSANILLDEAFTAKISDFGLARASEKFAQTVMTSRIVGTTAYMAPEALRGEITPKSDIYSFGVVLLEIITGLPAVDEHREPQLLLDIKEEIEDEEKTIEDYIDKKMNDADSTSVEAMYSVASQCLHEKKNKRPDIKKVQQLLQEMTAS
Experimental: 2.1 Based on the experimental method of Western Blot, specific antibodies were used to stain the THP-1 cell samples treated by gel electrophoresis, and the degrading activity of the compounds on the IRAK4 protein in THP-1 cells was determined by analyzing the position and depth of staining. The concentrations of compound for the detection included 0 μM, 0.3 μM, 1 μM and 3 μM, and the cells were treated by the compound for 8 hours, 16 hours, 24 hours, and 48 hours. Glyceraldehyde-3-phosphate dehydrogenase (GAPDH) is an internal reference protein in this experiment.
Electrophoresis buffer: 50 mL MOPS SDS Running Buffer (20×) and 50 mL 20×TBS Tween-20 buffer were diluted with deionized water to 1 L as the electrophoresis buffer;
5% skim milk (w/v): 2.5 g skim milk was diluted with 50 mL 1×TBS Tween-20 buffer to prepare 5% skim milk;
5% BSA (w/v): 2.5 g BSA was diluted with 50 mL 1×TBS Tween-20 buffer to prepare 5% BSA;
Anti-IRAK4 antibody was diluted with 5% BSA at 1:1000 into a primary antibody working solution;
Goat Anti-Rabbit IgG H&L (HRP) was diluted with 5% BSA at 1:2000 into a second antibody working solution; and
Goat Anti-Mouse IgG H&L (HRP) was diluted with 5% BSA at 1:2000 into a second antibody working solution.
THP-1 cells were plated in a 6-well plate at a density of 1.5×10^6 cells per ml and incubated for 2 hours in a cell culture incubator under 37° C. and 5% CO2. The compound was diluted with DMSO to 0.6 mM, 0.2 mM and 0.06 mM respectively. 10 μL of compound solution was added to the corresponding wells, and continued to incubate in the incubator for 16 hours, 24 hours and 48 hours respectively. The compound-treated THP-1 cells in the well were collected, added with 120 μL of RIPA lysate containing protease inhibitor, Phosphatase Inhibitor Cocktail 2 and Phosphatase Inhibitor Cocktail 3, lysed on wet ice for 30 minutes, and then the cells lysate was centrifuged at a high speed and a low temperature for 5 minutes to collect the supernatant. The protein concentration of the cell sample was determined according to the instructions in the Pierce™ BCA Protein Assay Kit.
The concentration of the sample was adjusted to be consistent using lysis buffer and NuPAGE® LDS sample buffer containing 1M DTT. The samples were heated at 95° C. for 5 minutes and centrifuged at a low temperature and at a high speed. 20 μL of the prepared protein sample and 4 μL of PageRuler Prestained Protein Ladder were added into the gel well for running at 80V voltage for 0.5 hours, then the voltage was adjusted to 120V for further running for 1.5 hours. The gel was removed and the proteins in the gel were transferred to the IBlotTM 2 transfer membrane set at 20V. After successful transfer, bands at 65 kDa-40 kDa and 40 kDa-30 kDa were cut respectively. The membranes were blocked with 5% skim milk for 1 hour at room temperature. The membranes were washed three times with 1× concentration of TBST, then incubated with IRAK4 antibody working solution overnight at 4° C. The IRAK4 antibody working solution was discarded, and the membranes were washed three times with 1×concentration of TBST, and incubated with Goat Anti-Rabbit IgG H&L (HRP) working solution and Goat Anti-Mouse IgG H&L (HRP) working solution at room temperature. After 1 hour of incubation, the antibody working solution was discarded and the membranes were washed three times with 1× concentration of TBST. According to the instructions of the kit SuperSignal™ West Femto Maximum Sensitivity Substrate, the reagents in the kit were mixed in equal volume proportions to prepare a luminescent liquid mixture. The membranes were incubated for 1 minute, then removed for exposure.
The results of Western blotting 24 hours after administration of the compounds with a concentration of 1 μM were shown in Table 3: […]

Chain of kinase IRAK4 (Q9NWZ3 whole entry): as above

Row | Structure (SMILES) | IC50 [1] | DC50 [2]
1 | COc1cc2nn(C3CC4(CCN(c5cnn(C6CCN(c7ccc8c(c7)C(=O)N(C7CCC(=O)NC7=O)C8=O)CC6)c5)CC4)C3)cc2cc1NC(=O)c1cccc(C(F)(F)F)n1 (centres unmarked) [Compound I-32] | 34.8 nM | 33.8 nM
2 | COc1cc2nn(C3CC4(CCN(C(=O)C5(O)CCN(c6ccc7c(c6)C(=O)N(C6CCC(=O)NC6=O)C7=O)CC5)CC4)C3)cc2cc1NC(=O)c1cccc(C(F)(F)F)n1 (centres unmarked) [Compound I-33] | 26.5 nM | 8.05 nM
3 | COc1cc2nn(C3CC4(CCN(C(=O)C5CCN(c6ccc7c(c6)C(=O)N(C6CCC(=O)NC6=O)C7=O)CC5(F)F)CC4)C3)cc2cc1NC(=O)c1cccc(C(F)(F)F)n1 (centres unmarked) [Compound I-35] | 33.4 nM | 7.86 nM
4 | COc1cc2nn(C3CC4(CCN(C(=O)C5CCN(c6ccc7c(c6)C(=O)N(C6CCC(=O)NC6=O)C7=O)CC5)CC4)C3)cc2cc1NC(=O)c1cccc(C)n1 (centres unmarked) [Compound I-38] | 14.1 nM | 2.61 nM
5 | COc1cc2nn(C3CC4(CCN(C(=O)C5CCN(c6ccc7c(c6)C(=O)N(C6CCC(=O)NC6=O)C7=O)CC5)CC4)C3)cc2cc1NC(=O)c1cccc(N2CCOCC2)n1 (centres unmarked) [Compound I-41] | 49.8 nM | 4.42 nM
6 | COc1cc2nn(C3CC4(CCN(C(=O)C5CCN(c6ccc7c(c6)C(=O)N(C6CCC(=O)NC6=O)C7=O)CC5)CC4)C3)cc2cc1NC(=O)c1cnn2ccc(N3C[C@H]4C[C@@H]3CO4)nc12 (some centres unmarked) [Compound I-44] | 17 nM | 1.16 nM
7 | COc1cc2nn(C3CC4(CCN(C(=O)C5CCN(c6ccc7c(c6)C(=O)N(C6CCC(=O)NC6=O)C7=O)CC5)CC4)C3)cc2cc1NC(=O)c1ccn(C(F)F)n1 (centres unmarked) [Compound I-47] | 9.17 nM | 5.53 nM
8 | O=C1CCC(N2C(=O)c3ccc(N4CCC(C(=O)N5CCC6(CC5)CC(n5cc7cc(NC(=O)c8cccc(C(F)(F)F)n8)c(C(=O)O)cc7n5)C6)CC4)cc3C2=O)C(=O)N1 (centres unmarked) [Compound I-48] | 19.2 nM | > 1000 nM
9 | COc1cc2nn(C3CC4(CCN(C(=O)C5CCN(c6ccc7c(c6)C(=O)N(C6CCC(=O)NC6=O)C7=O)CC5)CC4)C3)cc2cc1NC(=O)c1cnn2ccc(N3CCN(C)CC3)nc12 (centres unmarked) [Compound I-49] | 13.4 nM | 9.79 nM
10 | COc1cc2nn(C3CC4(CCN(C(=O)C5(F)CCN(c6ccc7c(c6)C(=O)N(C6CCC(=O)NC6=O)C7=O)CC5)CC4)C3)cc2cc1NC(=O)c1cccc(N2CCOCC2)n1 (centres unmarked) [Compound I-50] | 70.7 nM | 21.6 nM
11 | COc1cc2nn(C3CC4(CCN(C(=O)C5CCN(c6ccc7c(c6)C(=O)N(C6CCC(=O)NC6=O)C7=O)CC5)CC4)C3)cc2cc1NC(=O)c1cccc(N2CC3CC2CO3)n1 (centres unmarked) [Compound I-52] | 13.3 nM | 3.9 nM
12 | O=C1CCC(N2C(=O)c3ccc(N4CCC(C(=O)N5CCC6(CC5)CC(n5cc7cc(NC(=O)c8cccc(C(F)(F)F)n8)c(F)cc7n5)C6)CC4)cc3C2=O)C(=O)N1 (centres unmarked) [Compound I-53] | 138 nM | > 1000 nM
13 | COc1cc2nn(C3CC4(CCN(C(=O)C5CCN(c6ccc7c(c6)C(=O)N(C6CCC(=O)NC6=O)C7=O)CC5)CC4)C3)cc2cc1NC(=O)c1coc(N2CCOCC2)n1 (centres unmarked) [Compound I-54] | 11.6 nM | 6.2 nM
14 | COc1cc2nn(C3CC4(CCN(C(=O)C5CCN(c6ccc7c(c6)C(=O)N([C@H]6CCC(=O)NC6=O)C7=O)CC5)CC4)C3)cc2cc1NC(=O)c1cccc(C(F)(F)F)n1 [Compound I-57] | 32.4 nM | 12.2 nM
15 | COc1cc2nn(C3CC4(CCN(C(=O)C5CCN(c6ccc7c(c6)C(=O)N([C@@H]6CCC(=O)NC6=O)C7=O)CC5)CC4)C3)cc2cc1NC(=O)c1cccc(C(F)(F)F)n1 [Compound I-58] | 35.1 nM | 2.67 nM

The remaining lines, values ahead:

Row | IC50 [1] | DC50 [2] | Structure (SMILES)
16 | 39.7 nM | 22.7 nM | COc1cc2nn(C3CC4(CCN(C(=O)C5(F)CCN(c6ccc7c(c6)C(=O)N(C6CCC(=O)NC6=O)C7=O)CC5)CC4)C3)cc2cc1NC(=O)c1cccc(C(F)(F)F)n1 (centres unmarked) [Compound I-34]
17 | 12.4 nM | 1.16 nM | COc1cc2nn(C3CC4(CCN(C(=O)C5CCN(c6ccc7c(c6)C(=O)N(C6CCC(=O)NC6=O)C7=O)CC5)CC4)C3)cc2cc1NC(=O)c1coc(-c2ccnc(C)c2)n1 (centres unmarked) [Compound I-36]
18 | 29.9 nM | 20.7 nM | COc1cc2nn(C3CC4(CCN(C(=O)C5(C)CCN(c6ccc7c(c6)C(=O)N(C6CCC(=O)NC6=O)C7=O)CC5)CC4)C3)cc2cc1NC(=O)c1cccc(C(F)(F)F)n1 (centres unmarked) [Compound I-37]
19 | 10.2 nM | 1.2 nM | COc1cc2nn(C3CC4(CCN(C(=O)C5CCN(c6ccc7c(c6)C(=O)N(C6CCC(=O)NC6=O)C7=O)CC5)CC4)C3)cc2cc1NC(=O)c1cccc(C(F)F)n1 (centres unmarked) [Compound I-42]
20 | 20.7 nM | > 1000 nM | COc1cc2nn(C3CC4(CCN(C(=O)C5CCN(c6ccc7c(c6)C(=O)N(c6ccc(=O)[nH]n6)C7=O)CC5)CC4)C3)cc2cc1NC(=O)c1cccc(C(F)(F)F)n1 [Compound I-43]
21 | 17.7 nM | 9.15 nM | COc1cc2nn(C3CC4(CCN(C(=O)C5CCN(c6cc7c(cc6F)C(=O)N(C6CCC(=O)NC6=O)C7=O)CC5)CC4)C3)cc2cc1NC(=O)c1cccc(N2CCOCC2)n1 (centres unmarked) [Compound I-46]
22 | 5.33 nM | 149 nM | COc1cc2nn(C3CC4(CCN(C5CCN(C(=O)c6ccc7c(c6)C(=O)N(C6CCC(=O)NC6=O)C7=O)CC5)CC4)C3)cc2cc1NC(=O)c1cccc(C(F)(F)F)n1 (centres unmarked) [Compound I-51]
23 | 34.3 nM | 14.6 nM | COc1cc2nn(C3CC4(CCN(C(=O)C5CCN(c6ccc7c(c6)C(=O)N(C6CCC(=O)NC6=O)C7=O)CC5(F)F)CC4)C3)cc2cc1NC(=O)c1cccc(N2CCOCC2)n1 (centres unmarked) [Compound I-55]
24 | 27.3 nM | 8.05 nM | COc1cc2nn(C3CC4(CCN(C(=O)[C@H]5CC[C@H](Nc6ccc7c(c6)C(=O)N([C@H]6CCC(=O)NC6=O)C7=O)CC5)CC4)C3)cc2cc1NC(=O)c1cccc(C(F)(F)F)n1 [Compound I-59]
25 | 40.5 nM | 2.75 nM | COc1cc2nn(C3CC4(CCN(C(=O)[C@H]5CC[C@H](Nc6ccc7c(c6)C(=O)N([C@@H]6CCC(=O)NC6=O)C7=O)CC5)CC4)C3)cc2cc1NC(=O)c1cccc(C(F)(F)F)n1 [Compound I-60]

Reference: US20240423977A1, “FIVE-MEMBERED RING-FUSED SIX-MEMBERED RING COMPOUND, PREPARATION METHOD THEREFOR, AND PHARMACEUTICAL COMPOSITION AND USE THEREOF” (HANGZHOU POLYMED BIOPHARMACEUTICALS, INC., priority 2022, published 2024)
